Laboratory results as given in patent US11713335B2, “Aminocoumarin compounds and methods of their use” (President and Fellows of Harvard College, priority 2018, dated 2023).
Converted amounts (≈) assume the structure as drawn. Like-named read-outs stand apart in the source and are kept apart here.

Experiments:
Assay type in all cases: cell-based
A. baumannii 19606 = assay: Minimal inhibitory concentration, A. baumannii 19606; conditions: read-out: MIC (μM) A. baumannii 19606
Description: (§1) General Procedure for Determination of Minimal Inhibitory Concentrations
(§2) Overnight cultures (5 mL) of bacterial strains were grown in LB media or TSA media (for S. aureus) at 37° C. and with shaking at 220 rpm until saturation. The overnight culture was diluted serially 1:100 (50 μL in 5 mL sterile media) and then 1:100 (250 μL in 25 mL sterile media). The 25 mL of diluted culture was then dispensed to a sterile 96 well plate (Corning #3370). 198 μL of culture were dispensed into row A and 100 μL of this culture were dispensed into rows B-H. Aminocoumarin compound (DMSO stock) were added to the first row and then the row was mixed by pipetting. 100 μL of culture from row A were transferred to row B and the serial dilution continued until the final 100 μL from row H were discarded. The plate was incubated without shaking in a 37° C. for 16 hours and then read by visible light spectrophotometer (Molecular Devices) at 600 nm. The minimal inhibitory concentration (MIC) was determined as the lowest concentration of compound concentration that inhibited the growth of bacteria.
(§3) The compounds of the invention were assessed for activities against the pathogens S. aureus RN4220 and MW2, E. cloacae 13047, A. baumannii 19606, K. pneumoniae 700721, E. coli MC4100, 25922. All activities are reported in micromolar (uM) and are 16 hour minimal inhibitory concentrations at 37° C. The assay is detailed in Example 11 and is titled “General Procedure for Determination of Minimal Inhibitory Concentrations.”

E. coli 25922 = assay: Minimal inhibitory concentration, E. coli 25922; conditions: read-out: MIC (μM) E. coli 25922
Description: as §1, §2, §3

K. pneumoniae 700721 = assay: Minimal inhibitory concentration, K. pneumoniae 700721; conditions: read-out: MIC (μM) K. pneumoniae 700721
Description: as §1, §2, §3

S. aureus RN4220 = assay: Minimal inhibitory concentration, S. aureus RN4220; conditions: read-out: MIC (μM) S. aureus RN4220
Description: as §1, §2, §3

S. aureus MW2 = assay: Minimal inhibitory concentration, S. aureus MW2; conditions: read-out: MIC (μM) S. aureus MW2 (MRSA)
Description: as §1, §2, §3

E. cloacae 13047 = assay: Minimal inhibitory concentration, E. cloacae 13047; conditions: read-out: MIC (μM) E. cloacae 13047
Description: as §1, §2, §3

E. coli MC4100 = assay: Minimal inhibitory concentration, E. coli MC4100; conditions: read-out: MIC (μM) E. coli MC4100 ara+
Description: as §1, §2, §3

[1] = Acinetobacter baumannii, 19606, 16 h, 16 hour minimal inhibitory concentration at 37° C.
[2] = Escherichia coli, 25922, 16 h, 16 hour minimal inhibitory concentration at 37° C.
[3] = Klebsiella pneumoniae, 700721, 16 hour minimal inhibitory concentration at 37° C.
[4] = Staphylococcus aureus, RN4220, 16 h, 16 hour minimal inhibitory concentration at 37° C.
[5] = Staphylococcus aureus, MRSA, 16 h, 16 hour minimal inhibitory concentration at 37° C.
[6] = Enterobacter cloacae, 13047, 16 hour minimal inhibitory concentration at 37° C.
[7] = Escherichia coli, MC4100, 16 h, 16 hour minimal inhibitory concentration at 37° C.
[8] = 16 hour minimal inhibitory concentration at 37° C.

Question: Which MIC (A. baumannii 19606; [1]) does the source give for `CO[C@@H]1[C@@H](OC(N)=O)[C@@H](O)[C@H](Oc2ccc3c(O)c(NC(=O)c4ccc(F)c(Oc5ccccc5)c4)c(=O)oc3c2C)OC1(C)C` [Compound 254] here?
Answer: > 50 µM

Question: And the MIC (E. coli 25922; [2])?
Answer: 5 µM (≈ 3.19 µg/mL)

Question: And the MIC (K. pneumoniae 700721; [3])?
Answer: 20 µM (≈ 12.8 µg/mL)

Question: And the MIC (S. aureus RN4220; [4])?
Answer: 10 µM (≈ 6.39 µg/mL)

Question: And the MIC (S. aureus MW2; [5])?
Answer: 10 µM (≈ 6.39 µg/mL)

Question: What about the MIC (E. cloacae 13047; [6]) of the same molecule?
Answer: 79 µM (≈ 50.4 µg/mL)

Question: What about the MIC (E. coli MC4100; [7]) of the same molecule?
Answer: 2.4 µM (≈ 1.53 µg/mL)

Question: What does the source list for `CO[C@@H]1[C@@H](O)[C@@H](OC(=O)NC2CCCC2)[C@H](Oc2ccc3c(O)c(NC(=O)c4ccc(O)c(CC=C(C)C)c4)c(=O)oc3c2C)OC1(C)C` [Compound 107]?
Answer: MIC (A. baumannii 19606; [8]): 9 µM (≈ 6.13 µg/mL); MIC (E. coli 25922; [8]): >200 µM; MIC (K. pneumoniae 700721; [8]): >100 µM; MIC (S. aureus RN4220; [8]): 73 µM (≈ 49.7 µg/mL); MIC (S. aureus MW2; [8]): 73 µM (≈ 49.7 µg/mL); MIC (E. cloacae 13047; [8]): >100 µM; MIC (E. coli MC4100; [8]): >200 µM

Question: For `CO[C@@H]1[C@@H](O)[C@@H](OC(=O)NC2CCCCC2)[C@H](Oc2ccc3c(O)c(NC(=O)c4ccc(O)c(CC=C(C)C)c4)c(=O)oc3c2C)OC1(C)C` [Compound 110], which MIC (A. baumannii 19606; [8]) is on record?
Answer: >50 µM

Question: And the MIC (E. coli 25922; [8])?
Answer: >200 µM

Question: What about the MIC (K. pneumoniae 700721; [8]) of the same molecule?
Answer: >100 µM

Question: And the MIC (S. aureus RN4220; [8])?
Answer: >100 µM

Question: And the MIC (S. aureus MW2; [8])?
Answer: >100 µM

Question: And the MIC (E. cloacae 13047; [8])?
Answer: >100 µM

Question: What about the MIC (E. coli MC4100; [8]) of the same molecule?
Answer: >200 µM

Question: Which MIC (A. baumannii 19606; [1]) does the source give for `CO[C@@H]1[C@@H](OC(N)=O)[C@@H](O)[C@H](Oc2ccc3c(O)c(NC(=O)c4ccc(CN)cc4)c(=O)oc3c2C)OC1(C)C` [Compound 207] here?
Answer: > 50 µM

Question: And the MIC (E. coli 25922; [2])?
Answer: > 200 µM

Question: And the MIC (K. pneumoniae 700721; [3])?
Answer: > 100 µM

Question: What about the MIC (S. aureus RN4220; [4]) of the same molecule?
Answer: > 100 µM

Question: And the MIC (S. aureus MW2; [5])?
Answer: > 100 µM

Question: What about the MIC (E. cloacae 13047; [6]) of the same molecule?
Answer: > 100 µM

Question: And the MIC (E. coli MC4100; [7])?
Answer: > 200 µM

Question: Which results are given for `CO[C@@H]1[C@@H](OC(N)=O)[C@@H](O)[C@H](Oc2ccc3c(O)c(NC(=O)c4cccc(Oc5ccc(F)cc5)c4)c(=O)oc3c2C)OC1(C)C` [Compound 249]?
Answer: MIC (A. baumannii 19606; [1]): > 50 µM; MIC (E. coli 25922; [2]): < 1.56 µM; MIC (K. pneumoniae 700721; [3]): 20 µM (≈ 12.8 µg/mL); MIC (S. aureus RN4220; [4]): 20 µM (≈ 12.8 µg/mL); MIC (S. aureus MW2; [5]): 20 µM (≈ 12.8 µg/mL); MIC (E. cloacae 13047; [6]): > 100 µM; MIC (E. coli MC4100; [7]): 5 µM (≈ 3.19 µg/mL)

Question: With `CO[C@@H]1[C@@H](OC(N)=O)[C@@H](O)[C@H](Oc2ccc3c(O)c(NC(=O)c4cccc(Oc5cccc(C(F)(F)F)c5)c4)c(=O)oc3c2C)OC1(C)C` [Compound 241] as the molecule, how does the MIC (A. baumannii 19606; [1]) read?
Answer: > 50 µM

Question: And the MIC (E. coli 25922; [2])?
Answer: 145 µM (≈ 99.8 µg/mL)

Question: What about the MIC (K. pneumoniae 700721; [3]) of the same molecule?
Answer: > 100 µM

Question: What about the MIC (S. aureus RN4220; [4]) of the same molecule?
Answer: 9.08 µM (≈ 6.25 µg/mL)

Question: What about the MIC (S. aureus MW2; [5]) of the same molecule?
Answer: 9.08 µM (≈ 6.25 µg/mL)

Question: And the MIC (E. cloacae 13047; [6])?
Answer: > 100 µM

Question: And the MIC (E. coli MC4100; [7])?
Answer: 155 µM (≈ 107 µg/mL)

Question: Which results are given for `CO[C@@H]1[C@@H](OC(=O)c2ccc(C)[nH]2)[C@@H](O)[C@H](Oc2ccc3c(O)c(NC(=O)c4ccc(O)c(CC=C(C)C)c4)c(=O)oc3c2C)OC1(C)C` [Compound 112]?
Answer: MIC (A. baumannii 19606; Acinetobacter baumannii, 19606, 16 h): < 0.11 µM; MIC (E. coli 25922; Escherichia coli, 25922, 16 h): 18.5 µM (≈ 12.5 µg/mL); MIC (K. pneumoniae 700721; Klebsiella pneumoniae, 700721, 16 h): 37 µM (≈ 25 µg/mL); MIC (S. aureus RN4220; Staphylococcus aureus, RN4220, 16 h): < 0.01 µM; MIC (S. aureus MW2; Staphylococcus aureus, MRSA, 16 h): < 0.01 µM; MIC (E. cloacae 13047; Enterobacter cloacae, 13047, 16 h): > 100 µM; MIC (E. coli MC4100; Escherichia coli, MC4100, 16 h): 74 µM (≈ 50.1 µg/mL)

Question: What does the source list for `CO[C@@H]1[C@@H](OC(N)=O)[C@@H](O)[C@H](Oc2ccc3c(O)c(NC(=O)c4ccc(I)c(Oc5ccccc5)c4)c(=O)oc3c2C)OC1(C)C` [Compound 252]?
Answer: MIC (A. baumannii 19606; [1]): > 50 µM; MIC (E. coli 25922; [2]): 33 µM (≈ 24.6 µg/mL); MIC (K. pneumoniae 700721; [3]): 38 µM (≈ 28.4 µg/mL); MIC (S. aureus RN4220; [4]): 2.3 µM (≈ 1.72 µg/mL); MIC (S. aureus MW2; [5]): 2 µM (≈ 1.49 µg/mL); MIC (E. cloacae 13047; [6]): > 100 µM; MIC (E. coli MC4100; [7]): 17 µM (≈ 12.7 µg/mL)

Question: `CO[C@@H]1[C@@H](OC(N)=O)[C@@H](O)[C@H](Oc2ccc3c(O)c(NC(=O)c4ccnc(Oc5ccccc5)c4)c(=O)oc3c2C)OC1(C)C` [Compound 237] was tested. Which MIC (A. baumannii 19606; [1]) did it give?
Answer: > 50 µM

Question: What about the MIC (E. coli 25922; [2]) of the same molecule?
Answer: > 200 µM

Question: And the MIC (K. pneumoniae 700721; [3])?
Answer: > 100 µM

Question: What about the MIC (S. aureus RN4220; [4]) of the same molecule?
Answer: > 100 µM

Question: And the MIC (S. aureus MW2; [5])?
Answer: > 100 µM

Question: And the MIC (E. cloacae 13047; [6])?
Answer: > 100 µM

Question: What about the MIC (E. coli MC4100; [7]) of the same molecule?
Answer: > 100 µM

Question: How did the MIC (A. baumannii 19606; [8]) turn out when `CO[C@@H]1[C@@H](OC(N)=O)[C@@H](O)[C@H](Oc2ccc3c(O)c(NC(=O)C45CC6CC(CC(F)(C6)C4)C5)c(=O)oc3c2C)OC1(C)C` [Compound 100] was run?
Answer: >50 µM

Question: What about the MIC (E. coli 25922; [8]) of the same molecule?
Answer: >200 µM

Question: And the MIC (K. pneumoniae 700721; [8])?
Answer: >100 µM

Question: And the MIC (S. aureus RN4220; [8])?
Answer: 83 µM (≈ 50.2 µg/mL)

Question: And the MIC (S. aureus MW2; [8])?
Answer: 41 µM (≈ 24.8 µg/mL)

Question: And the MIC (E. cloacae 13047; [8])?
Answer: >100 µM

Question: And the MIC (E. coli MC4100; [8])?
Answer: >200 µM

Question: For `CO[C@@H]1[C@@H](OC(N)=O)[C@@H](O)[C@H](Oc2ccc3c(O)c(NC(=O)c4ccc(Br)cc4)c(=O)oc3c2C)OC1(C)C` [Compound 204], which MIC (A. baumannii 19606; [1]) is on record?
Answer: > 50 µM

Question: And the MIC (E. coli 25922; [2])?
Answer: > 200 µM

Question: And the MIC (K. pneumoniae 700721; [3])?
Answer: > 100 µM

Question: And the MIC (S. aureus RN4220; [4])?
Answer: 82 µM (≈ 49.8 µg/mL)

Question: What about the MIC (S. aureus MW2; [5]) of the same molecule?
Answer: 82 µM (≈ 49.8 µg/mL)

Question: What about the MIC (E. cloacae 13047; [6]) of the same molecule?
Answer: > 100 µM

Question: What about the MIC (E. coli MC4100; [7]) of the same molecule?
Answer: > 200 µM
